The record followed here is patent US20060074109A1, “Use of inhibitors of 24-hydroxylase in the treatment of cancer” (Sapphire Therapeutics, Inc., priority 2004, published 2006).

For data set [1], the target named is T1, 1αOHase in OVCAR-3 cells (Homo sapiens, UniProt O15528).
T1 construct: showing the expression of 1αOHase in OVCAR-3 cells; endogenous in cells; host or cells: OVCAR-3
T1 sequence (O15528 1-508): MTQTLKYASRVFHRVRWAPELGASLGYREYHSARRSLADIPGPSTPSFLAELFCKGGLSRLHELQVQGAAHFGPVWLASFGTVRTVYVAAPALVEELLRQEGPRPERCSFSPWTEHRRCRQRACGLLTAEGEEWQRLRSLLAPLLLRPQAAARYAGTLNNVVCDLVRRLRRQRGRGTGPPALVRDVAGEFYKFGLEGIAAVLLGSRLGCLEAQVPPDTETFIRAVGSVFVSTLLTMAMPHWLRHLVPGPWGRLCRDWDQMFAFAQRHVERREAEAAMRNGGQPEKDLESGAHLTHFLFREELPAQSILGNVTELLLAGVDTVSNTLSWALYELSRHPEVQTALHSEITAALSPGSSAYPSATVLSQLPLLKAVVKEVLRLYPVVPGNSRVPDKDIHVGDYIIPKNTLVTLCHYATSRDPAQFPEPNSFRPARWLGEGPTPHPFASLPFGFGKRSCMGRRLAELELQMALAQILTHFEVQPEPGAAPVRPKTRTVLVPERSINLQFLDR
In words: Metabolic analysis of 25(OH)D3: 1,25(OH)2D3 production. Type of data set: cell-based. As to the method: OVCAR-3 cells (1.5×10^6 cell/flask) were plated on T25 culture flasks. One day after plating, cells were treated with 500 nM 25(OH)D3 in RPMI 1640 medium supplemented with 10% FBS, 10 μg/ml insulin, 0.25% glucose and antibiotics (100 IU/ml penicillin, 100 μg/ml streptomycin). After 0, 3 or 24 hr, the medium was collected and the cell monolayer was extracted with 1 ml methanol. After 15 min incubation at room temperature, the methanol was transformed into the same tube than the sample medium. The samples for the measurement of the 25(OH)D3 metabolites were purified using the acetonitrile-C 18 Sep-Pak (Waters Corporation, Milford, Mass.) procedure (Turnbull, H., Trafford, D. J., Makin, H. L., “A Rapid and Simple Method for the Measurement of Plasma 25-hydroxyvitamin D2 and 25-hydroxyvitamin D3 Using Sep-Pak C 18 Cartridges and a Single High-Performance Liquid Chromatographic Step,” Clin. Chim. Acta., 120:65-76 (1982)) followed by separation of the metabolites by a high-performance liquid chromatography. […] The second measurement was done following the same procedure except dextran charcoal-treated FBS was used instead of FBS, 24OHase inhibitor (200 nM VID400) was used with the 500 nM 25(OH)D3 treatment, and the samples were collected only after 0 and 24 hr.

Data set [2] relates to OVCAR-3 cells. In words: Cell growth assay, crystal violet, 11 days. Type of data set: cell-based, human. To be noted: for effect on growth inhibition: Experiment V. How it is done: The human ovarian adenocarcinoma cell line, OVCAR-3 (ATCC, Manassas, Va.) was maintained, as recommended by the supplier, in RPMI 1640 medium (Sigma Aldrich, St. Louis, Mo.) supplemented with 10% FBS, 10 μg/ml insulin, 0.25% glucose and antibiotics (100 IU/ml penicillin, 100 μg/ml streptomycin). Human ovarian adenocarcinoma cell lines UT-OC-1, UT-OC-2, UT-OC-3, UT-OC-4, UT-OC-5 (Grenman, S., Engblom, P., Rantanen, V., Klemi, P. and Isola, J., “Cytogenetic Characterization of Five New Ovarian Carcinoma Cell Lines,” Acta Obstet. Gynecol. Scand., 76:83 (1997)) and SK-OV-3 and a human keratinocyte cell line HaCaT were grown in DMEM (Sigma Aldrich) with 10% FBS and antibiotics (100 IU/ml penicillin, 100 μg/ml streptomycin), and monkey kidney COS cells were maintained in DMEM/F12 (Sigma Aldrich) with 5% FBS. All cell lines were kept at 37° C. in a humidified 95% air/5% CO2 incubator.
When OVCAR-3 cells were on the logarithmic growth phase (70% confluent) the growth assay was started. For cell growth assay, 2,000 cell/200 μl/well were plated on 96-well culture plates. […] Ethanol was used as a vehicle, and it was also included in the control. The medium containing ethanol vehicle and/or hormones were changed to a fresh one every third day. Cell growth samples were taken 0, 1, 3, 5, 7, 9 and 11 days after the treatment.
Relative cell numbers were quantified as described previously (Kueng W, Silber E, Eppenberger U. Quantification of cells cultured on 96-well plates. Anal. Biochem., 182:16-9 (1989)). Cells were fixed on the bottom of the wells by addition of 10 μl of 11% glutaraldehyde solution in 0.1% phosphate buffer to 100 μl of medium. The plate was shaken 500 cycles/min for 15 min, washed 3 times by submersion in de-ionised water and air-dried. Fixed cells were stained with 0.1% solution of crystal violet dissolved in de-ionised water. After 20 min incubation, excess dye was removed by carefully washing with de-ionised water. The plate was air-dried prior to a bound dye solubilisation in 100 μl of 10% acetic acid. Relative cell number was given as absorbance units by measuring the optical density (590 nm) from each well using Victor 1420 multilabel counter (Wallac, Turku, Finland). Six determinations were used to calculate the mean optical density ±SD in each concentration at each time point. The absorbance value of day 0 (an overnight culture of 2,000 cells/well) was set as 0 by subtracting it from each value obtained from adjacent time-point measurements (days 1-11), and based on these values growth curves were created. Experiments were repeated 3-5 times. Day 11 was used to compare the effect of hormone treatments and 24OHase inhibitor. Statistical analyses were done using Student's t-test.
The cell growth response was determined as described in Experiment I. Briefly, cells were treated with indicated hormone concentrations or combinations of hormone and 24OHase inhibitor (VID400) for 11 days. The growth medium and hormones were changed to a fresh one every third day. After the treatment period, cells were fixed, stained with crystal violet, and the optical density (590 nm) was determined. The cell growth is presented as a percentage of ethanol-treated cells. The values represent the mean of 3 separate experiments ±SD. (*p<0.05, **p<0.001, ***p<0.0001, Student's t-test).
Cell growth samples were obtained after 11 days treatment.

Consider `C=C1CC[C@H](O)C/C1=C/C=C1\CCC[C@]2(C)[C@@H]([C@H](C)CCCC(C)(C)O)CC[C@@H]12` [25(OH)D3, monohydroxyvitamin D3], for which the “1,25(OH)2D3” value in data set [1] (500 nM 25(OH)D3, 0 hr, experiment I (FBS)) is recorded as 23 pM; in data set [1] (500 nM 25(OH)D3, 3 hr, experiment I (FBS)), 37 pM; in data set [1] (500 nM 25(OH)D3, 24 hr, experiment I (FBS)) it was 33 pM; in data set [1] (500 nM 25(OH)D3, 24 hr, experiment II (dextran charcoal-treated FBS)) it was 28 pM. The “stimulated growth compared to the control” value in data set [2] (10 nM, 11 days) stood at 32%; in data set [2] (50 nM, 11 days), 41%; in data set [2] (100 nM alone, 11 days, Experiment IV, not statistically significant), 18%; in data set [2] (100 nM, 11 days, Experiment I), 39%; in data set [2] (200 nM, 11 days), 35%; in data set [2] (500 nM, 11 days) it was 11%.

`O=C(NC[C@@H](c1ccccc1)n1ccnc1)c1ccc(-c2ccc(Cl)cc2)cc1` [VID400, 2-(R)-4′-Chlorobiphenyl-4-carboxylic acid (2-imidazol-1-yl-2-phenyl-ethyl)-amide]: in data set [1] (200 nM VID400 + 500 nM 25(OH)D3, 24 hr, second experiment), the “effect on production of 1,25(OH)2D3” value is “did not have an effect on production of 1,25(OH)2D3”. In addition, in data set [1] (500 nM 25(OH)D3 + 200 nM VID400, 24 hr, experiment II (dextran charcoal-treated FBS)), the “1,25(OH)2D3” value is listed as 27 pM. Besides, the “growth inhibition compared to the control” value in data set [2] (200 nM VID400 alone, 11 days, Experiment IV) stood at 8%; in data set [2] (200 nM VID400 combined with 1 nM 1,25(OH)2D3, 11 days), 27%; in data set [2] (200 nM VID400 combined with 10 nM 1,25(OH)2D3, 11 days), 77%; in data set [2] (200 nM VID400 combined with 100 nM 25(OH)D3, 11 days), 14%. Also, the “effect on growth inhibition” value in data set [2] (200 nM VID 400 combined with 10 nM 1,25(OH)2D3, 11 days) is reported as “clearly enhanced the growth inhibition”; in data set [2] (200 nM VID 400 combined with EB 1089, 11 days), “had no additional effect on cell growth inhibition”; in data set [2] (200 nM VID 400 combined with retinoids, 11 days), “slightly augmented the growth inhibition”.
